In series [1] the target is T1, human adenosine A2A receptor (Homo sapiens, UniProt P29274).
T1 construct: expressed in transfected cells; host or cells: CHO cells, semliki forest virus expression system; membrane preparation
In words: [3H]-SCH-58261 binding assay, human adenosine A2A receptor expressed in CHO cell membranes (SPA). The following applies: [3H]-SCH-58261 1 nM, Ki by Cheng-Prussoff equation; for Ki: read-out: hA2 (pKi) (converted). As to the method:
Human Adenosine A2A Receptor
The human adenosine A2A receptor was recombinantly expressed in chinese hamster ovary (CHO) cells using the semliki forest virus expression system. Cells were harvested, washed twice by centrifugation, homogenised and again washed by centrifugation. The final washed membrane pellet was suspended in a Tris (50 mM) buffer containing 120 mM NaCl, 5 mM KCl, 2 mM CaCl2 and 10 mM MgCl2 (pH 7.4) (buffer A). The [^3H]-SCH-58261 (Dionisotti et al., 1997, Br J Pharmacol 121, 353; 1 nM) binding assay was carried out in 96-well plates in the presence of 2.5 μg of membrane protein, 0.5 mg of Ysi-poly-1-lysine SPA beads and 0.1 U adenosine deaminase in a final volume of 200 μl of buffer A. Non-specific binding was defined using xanthine amine congener (XAC; 2 μM). Compounds were tested at 10 concentrations from 10 μM-0.3 nM. All assays were conducted in duplicate and repeated at least two times. Assay plates were incubated for 1 hour at room temperature before centrifugation and then bound ligand determined using a Packard Topcount scintillation counter. IC50 values were calculated using a non-linear curve fitting program and Ki values calculated using the Cheng-Prussoff equation.

Structures are written as SMILES.

T1 sequence (P29274 whole entry): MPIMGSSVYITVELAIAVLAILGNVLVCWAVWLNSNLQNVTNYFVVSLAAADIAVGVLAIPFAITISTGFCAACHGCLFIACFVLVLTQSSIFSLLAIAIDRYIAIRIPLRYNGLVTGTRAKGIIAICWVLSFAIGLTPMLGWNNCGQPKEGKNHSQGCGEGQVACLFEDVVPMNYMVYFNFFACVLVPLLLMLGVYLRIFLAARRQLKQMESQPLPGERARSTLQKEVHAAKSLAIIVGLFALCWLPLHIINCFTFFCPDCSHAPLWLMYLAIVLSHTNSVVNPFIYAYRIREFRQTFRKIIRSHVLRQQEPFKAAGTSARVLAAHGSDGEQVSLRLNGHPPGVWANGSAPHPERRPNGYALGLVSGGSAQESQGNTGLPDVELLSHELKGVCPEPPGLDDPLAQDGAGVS

On to `COC(=O)Nc1nc2c(OC)ccc(C3=CCOCC3)c2s1` [Example 1, [7-(3,6-Dihydro-2H-pyran-4-yl)-4-methoxy-benzothiazol-2-yl]-carbamic acid methyl ester], for which, in series [1], the Ki was 4.9 nM.

In the case of `COc1ccc(C2CCOCC2)c2sc(NC(=O)c3ccc(F)cc3)nc12` [Example 3, 4-Fluoro-N-[4-methoxy-7-(tetrahydro-pyran-4-yl)-benzothiazol-2-yl]-benzamide], in series [1], the Ki is 1.41 nM.

As for `COc1ccc(C2CCN(C(C)=O)CC2)c2sc(NC(=O)c3ccnc(C)c3)nc12` [Example 17, N-[7-(1-Acetyl-piperidin-4-yl)-4-methoxy-benzothiazol-2-yl]-2-methyl-isonicotinamide], the Ki in series [1] is 6.31 nM.

In the case of `COc1ccc(C2CCOCC2)c2sc(NC(=O)c3ccnc(CN4CCCC4)c3)nc12` [Example 43, N-[4-Methoxy-7-(tetrahydro-pyran-4-yl)-benzothiazol-2-yl]-2-pyrrolidin-1-ylmethyl-isonicotinamide], the melting point fell in the range of 200 to 202 °C. The Ki in series [1] is 1.23 nM.

On to `COc1cc(C(=O)Nc2nc3c(OC)ccc(C4CCN(C(C)=O)CC4)c3s2)ccn1` [Example 21, N-[7-(1-Acetyl-piperidin-4-yl)-4-methoxy-benzothiazol-2-yl]-2-methoxy-isonicotinamide], for which, in series [1], the Ki was 3.98 nM.

`COc1ccc(C2CCOCC2)c2sc(NC(=O)N3CCC(O)CC3)nc12` [Example 45, 4-Hydroxy-piperidine-1-carboxylic acid [4-methoxy-7-(tetrahydro-pyran-4-yl)-benzothiazol-2-yl]-amide] gave a melting point of 106 to 109 °C. Besides, the Ki in series [1] is 1.62 nM.

As for `COc1ccc(C2CCCCC2)c2sc(NC(=O)c3ccnc(CN4CCCC4)c3)nc12` [Example 25, N-(7-Cyclohexyl-4-methoxy-benzothiazol-2-yl)-2-pyrrolidin-1-yl-methyl-isonicotinamide], the “hA2 (pKi)” value in series [1] stood at 8.80.

As for `CCOc1cc(C(=O)Nc2nc3c(OC)ccc(C4CCOCC4)c3s2)ccn1` [Example 32, 2-Ethoxy-N-[4-methoxy-7-(tetrahydro-pyran-4-yl)-benzothiazol-2-yl]-isonicotinamide], the Ki in series [1] was 2.75 nM.

`COC(=O)Nc1nc2c(OC)ccc(C3=CCCCC3)c2s1` [Example 22, (7-Cyclohex-1-enyl-4-methoxy-benzothiazol-2-yl)-carbamic acid methyl ester]: the melting point lay within 164 to 173 °C. The Ki in series [1] was 10 nM.

As to `COc1ccc(C2=CCN(C(C)=O)CC2)c2sc(NC(=O)c3ccc(F)cc3)nc12` [Example 11, N-[7-(1-Acetyl-1,2,3,6-tetrahydro-pyridin-4-yl)-4-methoxy-benzothiazol-2-yl]-4-fluoro-benzamide], the Ki in series [1] was 5.01 nM.

Consider `COc1cc(C(=O)Nc2nc3c(OC)ccc(C4CCOCC4)c3s2)ccn1` [Example 31, 2-Methoxy-N-[4-methoxy-7-(tetrahydro-pyran-4-yl)-benzothiazol-2-yl]-isonicotinamide], for which the Ki in series [1] was 1.45 nM.

With `COCCN(C)c1cc(C(=O)Nc2nc3c(OC)ccc(C4CCOCC4)c3s2)ccn1` [Example 47, 2-[(2-Methoxy-ethyl)-methyl-amino]-N-[4-methoxy-7-(tetrahydro-pyran-4-yl)-benzothiazol-2-yl]-isonicotinamide], the Ki in series [1] is 1.51 nM.

On to `COc1ccc(C2=CCNCC2)c2sc(NC(=O)c3ccc(F)cc3)nc12.Cl`, for which the melting point fell in the range of 268 to 275 °C.

For `CCc1cc(C(=O)Nc2nc3c(OC)ccc(C4CCOCC4)c3s2)ccn1` [Example 33, 2-Ethyl-N-[4-methoxy-7-(tetrahydro-pyran-4-yl)-benzothiazol-2-yl]-isonicotinamide], in series [1], the Ki was 1.66 nM.

Regarding `COc1ccc(C2CCOCC2)c2sc(NC(=O)N3CCOCC3)nc12` [Example 44, Morpholine-4-carboxylic acid [4-methoxy-7-(tetrahydro-pyran-4-yl)-benzothiazol-2-yl]-amide], the Ki in series [1] is 1.51 nM.

With `COc1ccc(C2CCCCO2)c2sc(NC(=O)c3ccc(F)cc3)nc12` (centres unmarked) [Example 40, 4-Fluoro-N-[4-methoxy-7-(tetrahydro-pyran-2-yl)-benzothiazol-2-yl]-benzamide], the Ki in series [1] is 3.39 nM.

As for `COC(=O)Nc1nc2c(OC)ccc(C3CCOCC3)c2s1` [Example 2, [4-Methoxy-7-(tetrahydro-pyran-4-yl)-benzothiazol-2-yl]-carbamic acid methyl ester], the Ki in series [1] was 11.5 nM.

`COCCNc1cc(C(=O)Nc2nc3c(OC)ccc(C4CCOCC4)c3s2)ccn1` [Example 46, 2-(2-Methoxy-ethylamino)-N-[4-methoxy-7-(tetrahydro-pyran-4-yl)-benzothiazol-2-yl]-isonicotinamide]: the Ki in series [1] was 0.871 nM.

With `COc1ccc(C2CCOCC2)c2sc(NC(=O)c3ccnc(Br)c3)nc12` [Example 4, 2-Bromo-N-[4-methoxy-7-(tetrahydro-pyran-4-yl)-benzothiazol-2-yl]-isonicotinamide], the Ki in series [1] is 1.74 nM.

`COc1ccc(C2CCN(C(C)=O)CC2)c2sc(NC(=O)c3ccc(F)cc3)nc12` [Example 12, N-[7-(1-Acetyl-piperidin-4-yl)-4-methoxy-benzothiazol-2-yl]-4-fluoro-benzamide]: the Ki in series [1] is 3.16 nM.

As for `COc1ccc(C2CCCCO2)c2sc(NC(=O)c3ccnc(C)c3)nc12` (centres unmarked) [Example 41, N-[4-Methoxy-7-(tetrahydro-pyran-2-yl)-benzothiazol-2-yl]-2-methyl-isonicotinamide], in series [1], the Ki was 3.39 nM.

As to `COc1ccc(C2CCOCC2)c2sc(NC(=O)c3ccnc(C(C)C)c3)nc12` [Example 36, 2-Isopropyl-N-[4-methoxy-7-(tetrahydro-pyran-4-yl)-benzothiazol-2-yl]-isonicotinamide], the Ki in series [1] was 1.17 nM.

As to `COc1ccc(C2CCOCC2)c2sc(NC(=O)c3ccnc(C)c3)nc12` [Example 5, N-[4-Methoxy-7-(tetrahydro-pyran-4-yl)-benzothiazol-2-yl]-2-methyl-isonicotinamide], the Ki in series [1] is 2.82 nM.

In the case of `COCCN(C)Cc1ccc(C(=O)Nc2nc3c(OC)ccc(C4CCOCC4)c3s2)cc1` [Example 8, 4-{[(2-Methoxy-ethyl)-methyl-amino]-methyl}-N-[4-methoxy-7-(tetrahydro-pyran-4-yl)-benzothiazol-2-yl]-benzamide], the Ki in series [1] is 2.4 nM.

Consider `COc1ccc(C2CCOCC2)c2sc(NC(=O)c3ccc(C)nc3)nc12` [Example 28, N-[4-Methoxy-7-(tetrahydro-pyran-4-yl)-benzothiazol-2-yl]-6-methyl-nicotinamide], for which the Ki in series [1] is 1.07 nM.

On to `COc1ccc(C2CCOCC2)c2sc(NC(=O)c3ccc(CCl)cc3)nc12` [Example 7, 4-Chloromethyl-N-[4-methoxy-7-(tetrahydro-pyran-4-yl)-benzothiazol-2-yl]-benzamide], for which the Ki in series [1] was 1.1 nM.

With `CCCc1cc(C(=O)Nc2nc3c(OC)ccc(C4CCOCC4)c3s2)ccn1` [Example 34, N-[4-Methoxy-7-(tetrahydro-pyran-4-yl)-benzothiazol-2-yl]-2-propyl-isonicotinamide], the Ki in series [1] is 1.82 nM.

`COc1ccc(C2CCNCC2)c2sc(NC(=O)N3CCOCC3)nc12.Cl` showed a melting point of 314 to 315 °C.

Consider `COc1ccc(C2CCOCC2)c2sc(NC(=O)c3ccnc(N4CCOCC4)c3)nc12` [Example 6, N-[4-Methoxy-7-(tetrahydro-pyran-4-yl)-benzothiazol-2-yl]-2-morpholin-4-yl-isonicotinamide], for which the Ki in series [1] was 0.759 nM.

For the molecule `COc1ccc(C2CCCCO2)c2sc(NC(=O)c3ccnc(N4CCOCC4)c3)nc12` (centres unmarked) [Example 42, N-[4-Methoxy-7-(tetrahydro-pyran-2-yl)-benzothiazol-2-yl]-2-morpholin-4-yl-isonicotinamide], in series [1], the Ki is 2.04 nM.

Turning to `COc1ccc(C2CCCCO2)c2sc(NC(=O)c3ccnc(Br)c3)nc12` (centres unmarked) [Example 39, 2-Bromo-N-[4-methoxy-7-(tetrahydro-pyran-2-yl)-benzothiazol-2-yl]-isonicotinamide], the Ki in series [1] is 3.8 nM.

Turning to `COCCN(C)Cc1ccc(C(=O)Nc2nc3c(OC)ccc(C4CCCCC4)c3s2)cc1` [Example 24, N-(7-Cyclohexyl-4-methoxy-benzothiazol-2-yl)-4-{[(2-methoxy-ethyl)-methyl-amino]-methyl}-benzamide], the Ki in series [1] was 1.58 nM.

As for `COCCN(C)Cc1ccc(C(=O)Nc2nc3c(OC)ccc(C4CCN(C(C)=O)CC4)c3s2)cc1` [Example 18, N-[7-(1-Acetyl-piperidin-4-yl)-4-methoxy-benzothiazol-2-yl]-4-{[(2-methoxy-ethyl)-methylamino]-methyl}-benzamide], the Ki in series [1] was 7.94 nM.

Consider `COc1ccc(C2CCN(C(C)=O)CC2)c2sc(NC(=O)c3ccnc(N4CCOCC4)c3)nc12` [Example 20, N-[7-(1-Acetyl-piperidin-4-yl)-4-methoxy-benzothiazol-2-yl]-2-morpholin-4-yl-isonicotinamide], for which the Ki in series [1] is 2.51 nM.

`COc1ccc(C2CCN(C(C)=O)CC2)c2sc(NC(=O)c3ccc(C)cc3)nc12` [Example 19, N-[7-(1-Acetyl-piperidin-4-yl)-4-methoxy-benzothiazol-2-yl]-4-methyl-benzamide]: the Ki in series [1] was 3.98 nM.

Broadly, the melting point is the temperature of the solid-liquid transition.

(Values after US6734179B2, “Benzothiazoles” (Hoffmann-La Roche Inc., priority 2001, dated 2004).)
